These results are taken from patent publication US20040022866A1, “Pharmaceutical compositions with antibiotic activity” (ZAMBON GROUP S.P.A., priority 2002, published 2004).

A short description of this data set: DSC measurement of the heat of the degradation reaction of FT. The format is physicochemical. Conditions: scanning 10° C./min., mechanic mixture FT 0.02 moles + stabilizer 0.01 moles, 0.05% of water with respect to FT, reduced heat = higher stabilization. As to the method:
The stabilization of FT from the selected stabilizers was evaluated experimentally with the DSC technology.
A mechanic mixture of FT (0.02 moles) with each of the stabilizers (0.01 moles) was admixed with 0.05% of water with respect to FT.
The DCS technology used for each mixture (scanning 10° C./min.) allow to measure the reaction heat which develops after the melting peak of FT, due to the degradation reaction.
A reduced heat development indicates a higher stabilization, the amount of FT being the same.

Turning to `C[C@@H]1O[C@@H]1P(=O)(O)O.NC(CO)(CO)CO` [FT (single substance), Fosfomycin Tromethamol], the “reaction heat which develops after the melting peak of FT, due to the degradation reaction” value is recorded as 271.03 ± 16.73 (J/g).
